From BindingDB's records for patent US20240025892 (The General Hospital, 2024)

Biological target: Serine/threonine-protein kinase SIK2 (Homo sapiens, UniProt Q9H0K1)
Experiment: In Vitro SIK2 Kinase Assay
Experimental: Assays were performed in base reaction buffer (20 mM Hepes (pH 7.5), 10 mM MgCl2, 1 mM EGTA, 0.02% Brij35, 0.02 mg/mL BSA, 0.1 mM Na3VO4, 2 mM DTT, 1% DMSO). Compounds were dissolved in 100% DMSO in a 10 mM stock. Serial dilution was conducted by Integra Viaflo Assist in DMSO. […] The substrate used was pAMARA at a concentration of 0.2 mg/mL. Kinase assays were supplemented with 2 mM Mn2+, and 1 μM ATP was added. Assays were performed for 20 minutes at room temperature, after which time 33P-ATP (10 μCi/μL) was added followed by incubation for another 120 minutes at room temperature. Thereafter, radioactivity incorporated into the […] peptide substrate was detected by filter-binding method. Kinase activity data were expressed as the percent remaining kinase activity in test samples compared to DMSO reactions. IC50 values and curve fits were obtained using Prism (GraphPad Software).

Sequence of Serine/threonine-protein kinase SIK2 (Q9H0K1 whole entry): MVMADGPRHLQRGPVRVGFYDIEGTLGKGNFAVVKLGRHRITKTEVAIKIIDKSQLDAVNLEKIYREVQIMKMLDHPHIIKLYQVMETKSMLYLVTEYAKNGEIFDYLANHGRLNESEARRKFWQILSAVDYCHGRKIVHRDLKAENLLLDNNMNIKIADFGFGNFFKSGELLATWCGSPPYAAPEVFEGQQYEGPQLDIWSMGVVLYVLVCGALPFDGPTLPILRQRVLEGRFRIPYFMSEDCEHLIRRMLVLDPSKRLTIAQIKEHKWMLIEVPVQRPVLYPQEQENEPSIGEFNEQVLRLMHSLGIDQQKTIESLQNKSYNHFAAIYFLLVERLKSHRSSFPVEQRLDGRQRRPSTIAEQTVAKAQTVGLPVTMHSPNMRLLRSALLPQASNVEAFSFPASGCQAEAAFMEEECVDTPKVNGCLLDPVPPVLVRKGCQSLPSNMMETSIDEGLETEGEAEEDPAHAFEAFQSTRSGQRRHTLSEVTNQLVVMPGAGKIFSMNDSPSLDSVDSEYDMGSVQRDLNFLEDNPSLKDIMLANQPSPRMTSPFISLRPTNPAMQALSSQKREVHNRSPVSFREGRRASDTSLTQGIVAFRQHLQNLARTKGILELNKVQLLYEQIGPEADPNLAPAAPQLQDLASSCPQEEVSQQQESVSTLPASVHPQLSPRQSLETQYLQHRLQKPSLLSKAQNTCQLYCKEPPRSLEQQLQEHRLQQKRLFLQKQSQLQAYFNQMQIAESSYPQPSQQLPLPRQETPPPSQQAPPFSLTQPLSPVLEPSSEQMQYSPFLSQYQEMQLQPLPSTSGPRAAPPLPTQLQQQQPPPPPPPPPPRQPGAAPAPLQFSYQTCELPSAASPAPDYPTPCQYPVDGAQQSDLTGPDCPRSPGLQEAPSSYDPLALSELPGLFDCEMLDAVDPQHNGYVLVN

SMILES: N#Cc1ccc(-n2cnc3cc(C(=O)NCc4cccnc4)ccc32)cc1 [US20240025892, Example 32]
- IC50: 148 nM
